# Measurements as given in the supplement of paper PMC10307832.
# Experiments:
# Assay in all cases: relative viability (nuclei count vs DMSO), 5 days (fraction); higher = more cells survive
# CAL-12T = test system: CAL-12T
# Procedure, shortened: (§1)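 Nuclei were stained with Hoechst during a one-step fixation (final 0.05% Triton X-100, 1% formaldehyde, 1 ug/ml Hoechst) carried out 5 days after dosing, then counted on 4× images. The cells, lung cancer lines in 1536-well plates, had been dosed by pin tool the day after seeding with one drug alone or a fixed anchor-drug dose plus five library-drug doses (not always all listed) in √10 steps. Relative viability is the nuclei count in treated wells divided by that in vehicle wells, and each value is the median of duplicate plates.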
# LK-2 = test system: LK-2
# Procedure, shortened: as §1
# NCI-H1755 = test system: NCI-H1755
# Procedure, shortened: as §1
# Calu-6 = test system: Calu-6
# Procedure, shortened: as §1
# A549 = test system: A549
# Procedure, shortened: as §1
# NCI-H1651 = test system: NCI-H1651
# Procedure, shortened: as §1
# A-427 = test system: A-427
# Procedure, shortened: as §1
# IA-LM = test system: IA-LM
# Procedure, shortened: as §1
# EBC-1 = test system: EBC-1
# Procedure, shortened: as §1
# NCI-H1703 = test system: NCI-H1703
# Procedure, shortened: as §1
# NCI-H1299 = test system: NCI-H1299
# Procedure, shortened: as §1
smiles,measurement,setting,value
Cc1csc(=NC2CCCCC2)n1/N=C/c1ccc(O)c(O)c1O [MIM1] + C[C@@H](Oc1cc(-c2cnn(C3CCNCC3)c2)cnc1N)c1c(Cl)ccc(F)c1Cl [Crizotinib] (partner 1 µM),relative viability,CAL-12T; first compound 0.2 µM,0.596
same,relative viability,CAL-12T; first compound 0.6325 µM,0.676
same,relative viability,CAL-12T; first compound 2 µM,0.515
same,relative viability,CAL-12T; first compound 6.325 µM,0.438
same,relative viability,CAL-12T; first compound 20 µM,0.283
same,relative viability,LK-2; first compound 0.2 µM,0.234
same,relative viability,LK-2; first compound 0.6325 µM,0.233
same,relative viability,LK-2; first compound 6.325 µM,0.227
same,relative viability,LK-2; first compound 20 µM,0.229
same,relative viability,NCI-H1755; first compound 0.2 µM,0.861
same,relative viability,NCI-H1755; first compound 0.6325 µM,0.794
same,relative viability,NCI-H1755; first compound 2 µM,0.803
same,relative viability,NCI-H1755; first compound 6.325 µM,0.68
same,relative viability,NCI-H1755; first compound 20 µM,0.179
same,relative viability,Calu-6; first compound 0.2 µM,0.785
same,relative viability,Calu-6; first compound 0.6325 µM,0.826
same,relative viability,Calu-6; first compound 2 µM,0.696
same,relative viability,Calu-6; first compound 6.325 µM,0.36
same,relative viability,Calu-6; first compound 20 µM,0.186
same,relative viability,A549; first compound 0.2 µM,0.709
same,relative viability,A549; first compound 0.6325 µM,0.715
same,relative viability,A549; first compound 2 µM,0.762
same,relative viability,A549; first compound 6.325 µM,0.402
same,relative viability,A549; first compound 20 µM,0.227
same,relative viability,NCI-H1651; first compound 0.2 µM,0.921
same,relative viability,NCI-H1651; first compound 0.6325 µM,0.878
same,relative viability,NCI-H1651; first compound 2 µM,0.827
same,relative viability,NCI-H1651; first compound 6.325 µM,0.832
same,relative viability,NCI-H1651; first compound 20 µM,0.584
same,relative viability,A-427; first compound 0.2 µM,0.881
same,relative viability,A-427; first compound 0.6325 µM,0.731
same,relative viability,A-427; first compound 2 µM,0.862
same,relative viability,A-427; first compound 6.325 µM,0.713
same,relative viability,A-427; first compound 20 µM,0.214
same,relative viability,IA-LM; first compound 0.2 µM,0.697
same,relative viability,IA-LM; first compound 0.6325 µM,0.789
same,relative viability,IA-LM; first compound 2 µM,0.773
same,relative viability,IA-LM; first compound 6.325 µM,0.443
same,relative viability,IA-LM; first compound 20 µM,0.204
same,relative viability,EBC-1; first compound 0.2 µM,0.207
same,relative viability,EBC-1; first compound 0.6325 µM,0.196
same,relative viability,EBC-1; first compound 2 µM,0.195
same,relative viability,EBC-1; first compound 6.325 µM,0.196
same,relative viability,EBC-1; first compound 20 µM,0.227
same,relative viability,NCI-H1703; first compound 0.2 µM,0.534
same,relative viability,NCI-H1703; first compound 0.6325 µM,0.482
same,relative viability,NCI-H1703; first compound 2 µM,0.455
same,relative viability,NCI-H1703; first compound 6.325 µM,0.175
same,relative viability,NCI-H1703; first compound 20 µM,0.127
same,relative viability,NCI-H1299; first compound 0.2 µM,0.857
same,relative viability,NCI-H1299; first compound 0.6325 µM,0.975
same,relative viability,NCI-H1299; first compound 2 µM,0.975
same,relative viability,NCI-H1299; first compound 6.325 µM,0.966
same,relative viability,NCI-H1299; first compound 20 µM,0.904
Nc1cccc2c1CN(C1CCC(=O)NC1=O)C2=O (stereo not given) [Lenalidomide] + CS(=O)(=O)CCNCc1ccc(-c2ccc3ncnc(Nc4ccc(OCc5cccc(F)c5)c(Cl)c4)c3c2)o1 [Lapatinib] (partner 2 µM),relative viability,CAL-12T; first compound 0.253 µM,0.602
same,relative viability,CAL-12T; first compound 2.53 µM,0.801
same,relative viability,CAL-12T; first compound 8 µM,0.403
same,relative viability,LK-2; first compound 0.253 µM,0.884
same,relative viability,LK-2; first compound 2.53 µM,0.864
same,relative viability,LK-2; first compound 8 µM,0.709
same,relative viability,NCI-H1755; first compound 0.253 µM,1.02
same,relative viability,NCI-H1755; first compound 0.8 µM,1
same,relative viability,NCI-H1755; first compound 2.53 µM,1.04
same,relative viability,NCI-H1755; first compound 8 µM,0.916
same,relative viability,Calu-6; first compound 0.253 µM,0.971
same,relative viability,Calu-6; first compound 0.8 µM,1.09
same,relative viability,Calu-6; first compound 2.53 µM,1.17
same,relative viability,Calu-6; first compound 8 µM,1.13
same,relative viability,A549; first compound 0.253 µM,1.06
same,relative viability,A549; first compound 0.8 µM,1.09
same,relative viability,A549; first compound 2.53 µM,0.972
same,relative viability,A549; first compound 8 µM,1.02
same,relative viability,NCI-H1651; first compound 0.253 µM,0.825
same,relative viability,NCI-H1651; first compound 0.8 µM,0.867
same,relative viability,NCI-H1651; first compound 2.53 µM,1.25
same,relative viability,NCI-H1651; first compound 8 µM,0.88
same,relative viability,A-427; first compound 0.253 µM,0.983
same,relative viability,A-427; first compound 2.53 µM,1.1
same,relative viability,A-427; first compound 8 µM,0.975
same,relative viability,IA-LM; first compound 0.253 µM,0.647
same,relative viability,IA-LM; first compound 0.8 µM,0.557
same,relative viability,IA-LM; first compound 2.53 µM,0.613
same,relative viability,IA-LM; first compound 8 µM,0.532
same,relative viability,EBC-1; first compound 0.253 µM,0.211
same,relative viability,EBC-1; first compound 0.8 µM,0.205
same,relative viability,EBC-1; first compound 2.53 µM,0.217
same,relative viability,EBC-1; first compound 8 µM,0.235
same,relative viability,NCI-H1703; first compound 0.253 µM,1.06
same,relative viability,NCI-H1703; first compound 0.8 µM,1.78
same,relative viability,NCI-H1703; first compound 2.53 µM,1.42
same,relative viability,NCI-H1703; first compound 8 µM,1.24
same,relative viability,NCI-H1299; first compound 0.253 µM,0.961
same,relative viability,NCI-H1299; first compound 0.8 µM,0.873
same,relative viability,NCI-H1299; first compound 2.53 µM,0.948
same,relative viability,NCI-H1299; first compound 8 µM,1.01
